Measured values taken from patent US11109593B2, “Isoxazolin-5-one derivative and herbicide containing same as active ingredient” (HOKKO CHEMICAL INDUSTRY CO., LTD., priority 2017, dated 2021).

Experiments:
Type in all cases: in vivo
Amaranthus viridis = experiment: Test Example 3: herbicidal effect test by treatment of dry field farming soil (one day after seeding); conditions: 120 g/10a active ingredient, evaluated 14 days after treatment
Procedure: (§1) This test was conducted in a double system per one agent solution concentration area, and the herbicidal rates (%) were determined by the following equation (Math. 1) on 14 days after the treatment with the agents. Herbicidal Rate (%)={1-(Average Dry Weight (g) of Plant of Treated Area)/(Average Dry Weight (g) of Plant of Untreated Area)}×100 [Math. 1]
(§2) Herbicidal Effect Test by Treatment of Dry Field Farming Soil
(§3) Pots with a size of 36 cm^2 were filled with a dry field farming soil (alluvium). The soil of the top layer of 1 cm and seeds of weeds, namely southern crabgrass, Echinochloa crus-galli, Chenopodium album and Amaranthus viridis, 20 seeds each, were evenly mixed, and the top layer was gently pressed. Emulsions prepared using the compounds in Table 5 below according to Formulation Example 5 were diluted with water one day after seeding, and the water-diluted agent solutions were sprayed to the soil surfaces at a ratio of 100 liters per 10 ares. The converted amount of the applied active ingredient corresponded to 120 g per 10 ares. The herbicidal effects were evaluated by the same standard as that in Test Example 1 on 14 days after the treatment with the agents. […] The compound numbers in Table 5 are the same as those in Table 1 and Table 2 above.

Chenopodium album = experiment: as above; conditions: 120 g/10a active ingredient, evaluated 14 days after treatment
Procedure: as §1, §2, §3

southern crabgrass = experiment: as above; conditions: 120 g/10a active ingredient, evaluated 14 days after treatment
Procedure: as §1, §2, §3

Echinochloa crus-galli [1] = experiment: as above; conditions: 120 g/10a active ingredient, evaluated 14 days after treatment
Procedure: as §1, §2, §3

Scirpus juncoides [2] = experiment: Test Example 1: herbicidal effect test by treatment of rice paddy soil (immediately after seeding); conditions: 120 g/10a active ingredient, dry weight vs untreated area, 14 days after treatment
Summary of the method: (§4)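 Paddy soil in pots with compound fertilizer, puddled; 30 seeds per species sown at 0–1 cm, flooded ~3 cm, greenhouse. Water-diluted emulsions dropped onto water immediately after seeding at 120 g active ingredient per 10 ares, duplicate. Herbicidal rate (%) from plant dry weight versus untreated, 14 days after treatment.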

[3] = system: broad leaf weeds (Lindernia pyxidaria and Monochoria vaginalis); experiment: as above; conditions: 120 g/10a active ingredient, dry weight vs untreated area, 14 days after treatment
Summary of the method: as §4

Echinochloa crus-galli [4] = experiment: as above; conditions: 120 g/10a active ingredient, dry weight vs untreated area, 14 days after treatment
Summary of the method: as §4

Scirpus juncoides [5] = experiment: Test Example 2: herbicidal effect test by treatment during growing period in paddy rice cultivation (seven days after seeding); conditions: 120 g/10a active ingredient, assessed 14 days after treatment, dry weight vs untreated area
Summary of the method: (§5)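 Emulsion formulations, diluted in water, applied dropwise to flooded pots (about 3 cm water) 7 days post-seeding at 120 g a.i./10 ares. Weeds sown 30 seeds each, 0–1 cm deep in puddled paddy soil; greenhouse. Readout: % reduction in plant dry weight vs untreated, day 14, duplicates.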

[6] = system: broad leaf weeds (Lindernia pyxidaria and Monochoria vaginalis); experiment: as above; conditions: 120 g/10a active ingredient, assessed 14 days after treatment, dry weight vs untreated area
Summary of the method: as §5

Echinochloa crus-galli [7] = experiment: as above; conditions: 120 g/10a active ingredient, assessed 14 days after treatment, dry weight vs untreated area
Summary of the method: as §5

Structure (SMILES) | herbicidal rate, Amaranthus viridis (Amaranthus viridis) [%] | herbicidal rate, Chenopodium album (Chenopodium album) [%] | herbicidal rate, southern crabgrass (southern crabgrass) [%] | herbicidal rate, Echinochloa crus-galli (Echinochloa crus-galli [1]) [%] | Herbicidal rate (%) Scirpus juncoides (Scirpus juncoides [2]) [%] | Herbicidal rate (%) Lindernia pyxidaria [3] [%] | Herbicidal rate (%) Monochoria vaginalis [3] [%] | Herbicidal rate (%) Echinochloa crus-galli (Echinochloa crus-galli [4]) [%] | Herbicidal rate (%) Scirpus juncoides (Scirpus juncoides [5]) [%] | Herbicidal rate (%) Lindernia pyxidaria [6] [%] | Herbicidal rate (%) Monochoria vaginalis [6] [%] | Herbicidal rate (%) Echinochloa crus-galli (Echinochloa crus-galli [7]) [%]
CCCOC(=O)N(c1ccccc1Cc1c(C)n(C(C)(C)C)oc1=O)S(=O)(=O)C(F)(F)F [Compound 1-631] | 90 | 90 | 90 | 90 | 90 | 90 | 90 | 90 | 90 | 90 | 90 | 90
Cc1c(Cc2ccccc2NS(=O)(=O)C(F)(F)F)c(=O)on1CCCc1ccccc1 [Compound 1-221] | 50 | 40 | 50 | 70 | 80 | 70 | 60 | 90 | 40 | 40 | 40 | 60
CCC(C)Cn1oc(=O)c(Cc2ccccc2N(S(=O)(=O)C(F)(F)F)S(=O)(=O)C(F)(F)F)c1C (stereo not drawn) [Compound 1-972] | 100 | 100 | 90 | 90 | 100 | 100 | 100 | 100 | 90 | 80 | 100 | 100
CCn1oc(=O)c(Cc2ccccc2N(S(=O)(=O)C(F)(F)F)S(=O)(=O)C(F)(F)F)c1C [Compound 1-960] | 0 | 0 | 80 | 100 | 80 | 70 | 70 | 80 | 70 | 70 | 70 | 70
Cc1c(Cc2ccccc2N(C(=O)OCC(C)C)S(=O)(=O)C(F)(F)F)c(=O)on1C(C)C [Compound 1-667] | 80 | 90 | 80 | 90 | 90 | 90 | 90 | 90 | 90 | 90 | 90 | 90
Cc1c(Cc2ccccc2N(C(=O)OC(C)C)S(=O)(=O)C(F)(F)F)c(=O)on1C(C)(C)C [Compound 1-641] | 90 | 90 | 90 | 90 | 90 | 90 | 90 | 90 | 90 | 90 | 90 | 90
